Results: ChEMBL document CHEMBL5506043, “A β-Carboline Derivate PAD4 Inhibitor Reshapes Neutrophil Phenotype and Improves the Tumor Immune Microenvironment against Triple-Negative Breast Cancer” (J Med Chem, 2024)

Experiments:
[1] = Cytotoxicity against human MCF-10A cells assessed as inhibition of cell growth incubated for 48 hrs by MTT assay; format: toxicity, cell-based
4T1 = assay: Antiproliferative activity against mouse 4T1 cells assessed as inhibition of cell growth incubated for 48 hrs by MTT assay; format: functional, cell-based; settings: 4T1, 48 h
MDA-MB-468 = assay: Antiproliferative activity against human MDA-MB-468 cells assessed as inhibition of cell growth incubated for 48 hrs by MTT assay; format: functional, cell-based; settings: MDA-MB-468, 48 h
[2] = molecular target: Protein-arginine deiminase type-4 (Homo sapiens, UniProt Q9UM07); assay: Inhibition of PAD4 (unknown origin) using Nalpha-benzoyl-L-arginine ethyl ester as substrate preincubated for 60 mins followed by substrate addition and measured after 90 mins by colorimetric analysis
[3] = molecular target: Protein-arginine deiminase type-2 (Homo sapiens, UniProt Q9Y2J8); assay: Inhibition of PAD2 (unknown origin) using Nalpha-benzoyl-L-arginine ethyl ester as substrate preincubated for 60 mins followed by substrate addition and measured after 90 mins by colorimetric analysis
Protein-arginine deiminase type-2, sequence (Q9Y2J8 whole entry): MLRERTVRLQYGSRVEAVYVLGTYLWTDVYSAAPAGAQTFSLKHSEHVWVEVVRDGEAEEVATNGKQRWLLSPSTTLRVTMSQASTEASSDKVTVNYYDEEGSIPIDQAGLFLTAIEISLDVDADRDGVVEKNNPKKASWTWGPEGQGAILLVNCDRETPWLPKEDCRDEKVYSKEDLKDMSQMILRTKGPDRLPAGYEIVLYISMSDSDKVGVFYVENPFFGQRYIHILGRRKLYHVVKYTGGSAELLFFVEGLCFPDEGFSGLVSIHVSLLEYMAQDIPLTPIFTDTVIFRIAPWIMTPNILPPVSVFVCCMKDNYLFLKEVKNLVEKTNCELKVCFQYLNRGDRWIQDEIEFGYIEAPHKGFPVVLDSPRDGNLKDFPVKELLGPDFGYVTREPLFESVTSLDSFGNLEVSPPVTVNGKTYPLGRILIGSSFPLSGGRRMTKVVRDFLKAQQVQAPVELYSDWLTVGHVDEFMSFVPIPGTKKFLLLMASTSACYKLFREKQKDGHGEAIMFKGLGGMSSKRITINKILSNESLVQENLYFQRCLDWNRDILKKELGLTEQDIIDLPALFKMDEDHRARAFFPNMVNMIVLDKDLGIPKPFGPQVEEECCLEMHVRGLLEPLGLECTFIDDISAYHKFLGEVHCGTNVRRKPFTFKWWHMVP

Protein-arginine deiminase type-4, sequence (Q9UM07 whole entry): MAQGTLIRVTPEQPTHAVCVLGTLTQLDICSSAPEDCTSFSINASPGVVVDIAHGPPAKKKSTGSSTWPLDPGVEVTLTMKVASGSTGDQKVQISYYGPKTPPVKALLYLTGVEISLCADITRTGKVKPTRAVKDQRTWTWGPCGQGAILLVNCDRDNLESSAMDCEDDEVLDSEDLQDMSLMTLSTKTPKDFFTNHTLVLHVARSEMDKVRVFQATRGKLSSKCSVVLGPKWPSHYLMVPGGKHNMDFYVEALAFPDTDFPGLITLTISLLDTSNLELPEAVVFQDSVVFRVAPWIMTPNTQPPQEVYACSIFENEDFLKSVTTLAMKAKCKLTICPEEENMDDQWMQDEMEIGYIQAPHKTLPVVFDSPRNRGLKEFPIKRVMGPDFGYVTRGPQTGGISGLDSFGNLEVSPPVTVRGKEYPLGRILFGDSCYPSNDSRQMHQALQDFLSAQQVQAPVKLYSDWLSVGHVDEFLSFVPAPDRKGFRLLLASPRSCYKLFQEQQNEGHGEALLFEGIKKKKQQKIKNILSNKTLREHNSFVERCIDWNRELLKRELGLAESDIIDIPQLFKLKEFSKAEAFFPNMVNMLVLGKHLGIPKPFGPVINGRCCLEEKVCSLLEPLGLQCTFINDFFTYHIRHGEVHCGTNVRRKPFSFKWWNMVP

SMILES	IC50 at 48 h [1] [µM]	IC50 (4T1) [µM]	IC50 (MDA-MB-468) [µM]	IC50 [2] [µM]	IC50 [3] [µM]
N=C(CCl)NCCC[C@H](NC(=O)c1cc2c([nH]c3ccccc32)c(-c2cc3ccccc3cn2)n1)C(=O)NCc1ccccc1	4.02	1.48	4.26	24.1	> 10
COc1cccc(OC)c1-c1nc(C(=O)N[C@@H](CCCNC(=N)CCl)C(=O)NCc2ccccc2)cc2c1[nH]c1ccccc12	14.7	13.9	5.87	1.89	1.51
Cn1c(-c2nc(C(=O)N[C@@H](CCCNC(=N)CCl)C(=O)NCc3ccccc3)cc3c2[nH]c2ccccc23)nc2ccccc21	5.3	3.77	4.82	> 10	> 10
N=C(CCl)NCCC[C@H](NC(=O)c1ccc2nc[nH]c2c1)C(=O)NCc1ccccc1	> 100	> 100	> 100	1.15	2.08
N=C(CCl)NCCC[C@H](NC(=O)c1ccc2c(c1)NCCN2)C(=O)NCc1ccccc1	> 100	> 100	> 100	2.3	1.93
N=C(CCl)NCCC[C@H](NC(=O)c1cc2c([nH]c3ccccc32)c(C2CCCCC2)n1)C(=O)NCc1ccccc1	2.76	5.48	2.89	1.11	2.32
COc1ccc(-c2nc(C(=O)N[C@@H](CCCNC(=N)CCl)C(=O)NCc3ccccc3)cc3c2[nH]c2ccccc23)cc1	6.27	7.48	4.2	1.7	3.04
N=C(CCl)NCCC[C@H](NC(=O)c1cc2c([nH]c3ccccc32)c(-c2cccc([N+](=O)[O-])c2)n1)C(=O)NCc1ccccc1	7.22	> 100	13.8	2.03	> 10
Cc1ccc(-c2nc(C(=O)N[C@@H](CCCNC(=N)CCl)C(=O)NCc3ccccc3)cc3c2[nH]c2ccccc23)cc1	17.5	8.02	6.94	10	> 10
N#Cc1ccc(-c2nc(C(=O)N[C@@H](CCCNC(=N)CCl)C(=O)NCc3ccccc3)cc3c2[nH]c2ccccc23)cc1	11.1	18.3	4.36	1.61	3
N=C(CCl)NCCC[C@H](NC(=O)c1cc2c([nH]c3ccccc32)c(-c2ccc3ccccc3c2)n1)C(=O)NCc1ccccc1	9.73	5.8	4.23	3.24	> 10
N=C(CCl)NCCC[C@H](NC(=O)c1ccc2nccnc2c1)C(=O)NCc1ccccc1	54	46.2	69.5	2.64	2.28
N=C(CCl)NCCC[C@H](NC(=O)c1cc2c([nH]c3ccccc32)c(-c2ccc(O)cc2)n1)C(=O)NCc1ccccc1	51.8	22.9	30.5	1.08	2.26
N=C(CCl)NCCC[C@H](NC(=O)c1nc2ccccc2[nH]1)C(=O)NCc1ccccc1	29.7	72.1	29.2	2.92	5.4
N=C(CCl)NCCC[C@H](NC(=O)c1cc2c([nH]c3ccccc32)c(-c2nccc3ccccc23)n1)C(=O)NCc1ccccc1	3.03	1.3	3.66	14	> 10
COc1cc(OC)c(-c2nc(C(=O)N[C@@H](CCCNC(=N)CCl)C(=O)NCc3ccccc3)cc3c2[nH]c2ccccc23)c(OC)c1	16.9	16	6.18	2.15	1.63
CC(C)c1nc(C(=O)N[C@@H](CCCNC(=N)CCl)C(=O)NCc2ccccc2)cc2c1[nH]c1ccccc12	4.07	11.5	5.2	1.18	1.14
N=C(CCl)NCCC[C@H](NC(=O)c1cc2c([nH]c3ccccc32)c(-c2ccc(Cl)cc2)n1)C(=O)NCc1ccccc1	6.35	9.39	4.05	1.13	4.05
N=C(CCl)NCCC[C@H](NC(=O)c1c[nH]c2ccc(F)cc12)C(=O)NCc1ccccc1	72.7	85.5	92	1.02	2.1
N=C(CCl)NCCC[C@H](NC(=O)c1cc2c([nH]c3ccccc32)c(-c2ccncc2)n1)C(=O)NCc1ccccc1	83.8	45.2	85.3	3.43	4.65

SMILES	IC50 at 48 h [1] [µM]	IC50 (4T1) [µM]	IC50 (MDA-MB-468) [µM]	IC50 [2] [µM]	IC50 [3] [µM]
CC(C)c1ccc(-c2nc(C(=O)N[C@@H](CCCNC(=N)CCl)C(=O)NCc3ccccc3)cc3c2[nH]c2ccccc23)cc1	3.52	4.28	2.95	6.89	> 10
N=C(CCl)NCCC[C@H](NC(=O)[C@@H]1Cc2ccccc2CN1)C(=O)NCc1ccccc1	> 100	74	> 100	6.46	11.6
N=C(CCl)NCCC[C@H](NC(=O)c1c[nH]c2ccccc12)C(=O)NCc1ccccc1	120	99.9	117	0.7	0.35
CCCCCCCCCc1nc(C(=O)N[C@@H](CCCNC(=N)CCl)C(=O)NCc2ccccc2)cc2c1[nH]c1ccccc12	14.3	12.2	7.2	14	16.8
N=C(CCl)NCCC[C@H](NC(=O)c1ccc2[nH]ccc2c1)C(=O)NCc1ccccc1	63.6	41.4	61.3	0.8	1.43
COc1ccc(-c2nc(C(=O)N[C@@H](CCCNC(=N)CCl)C(=O)NCc3ccccc3)cc3c2[nH]c2ccccc23)cc1OC	11.1	11.4	5.93	1.52	4.59
CC(C)(C)c1nc(C(=O)N[C@@H](CCCNC(=N)CCl)C(=O)NCc2ccccc2)cc2c1[nH]c1ccccc12	3.08	7.51	4.31	1.2	4.32
CCC(CC)c1nc(C(=O)N[C@@H](CCCNC(=N)CCl)C(=O)NCc2ccccc2)cc2c1[nH]c1ccccc12	3.82	5.66	3.72	1.1	1.36
COC(Cc1nc(C(=O)N[C@@H](CCCNC(=N)CCl)C(=O)NCc2ccccc2)cc2c1[nH]c1ccccc12)OC	11	19.8	7.99	0.96	1
CC(C)Cc1nc(C(=O)N[C@@H](CCCNC(=N)CCl)C(=O)NCc2ccccc2)cc2c1[nH]c1ccccc12	5.16	10.1	4.42	0.71	1.03
Cc1nc(C(=O)N[C@@H](CCCNC(=N)CCl)C(=O)NCc2ccccc2)cc2c1[nH]c1ccccc12	18.2	18.9	6.73	0.76	0.83
CCCCCc1nc(C(=O)N[C@@H](CCCNC(=N)CCl)C(=O)NCc2ccccc2)cc2c1[nH]c1ccccc12	8.01	8.07	7.45	1.75	3.64
N=C(CCl)NCCC[C@H](NC(=O)c1cc2c([nH]c3ccccc32)c(-c2nc3ccccc3[nH]2)n1)C(=O)NCc1ccccc1	3	1.44	3.18	9.3	> 10
N=C(CCl)NCCC[C@H](NC(=O)c1cc2c(cn1)[nH]c1ccccc12)C(=O)NCc1ccccc1	29.4	23.5	14.3	1.76	2.73
N=C(CCl)NCCC[C@H](NC(=O)c1cc2c([nH]c3ccccc32)c(-c2cccs2)n1)C(=O)NCc1ccccc1	8.03	7.64	3.99	1.32	3.77
N=C(CCl)NCCC[C@H](NC(=O)c1cc2c([nH]c3ccccc32)c(C2CC2)n1)C(=O)NCc1ccccc1	4.37	12.2	4.88	0.62	1.27
N=C(CCl)NCCC[C@H](NC(=O)c1cc2c([nH]c3ccccc32)c(-c2ccc3ccccc3n2)n1)C(=O)NCc1ccccc1	2.77	0.88	3.05	13.2	> 10
N=C(CCl)NCCC[C@H](NC(=O)c1cc2c([nH]c3ccccc32)c(-c2ccc(F)cc2)n1)C(=O)NCc1ccccc1	7.07	11	3.97	1.02	2.95
N=C(CCl)NCCC[C@H](NC(=O)c1cc2c([nH]c3ccccc32)c(-c2ncc[nH]2)n1)C(=O)NCc1ccccc1	12.4	6.67	6.94	3.12	10.8
